{
  "source": "the supplement of paper PMC10307832",
  "assay_in_all_cases": "relative viability (nuclei count vs DMSO), 5 days (fraction); higher = more cells survive",
  "key": {"201T": {"system": "201T", "procedure,_shortened": "(§1)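 Dosing by pin tool came one day after lung cancer cell lines were seeded in 1536-well plates, using either one drug or a fixed anchor-drug dose plus five library-drug doses (not always all listed) in √10 steps. After 5 days, nuclei were counted on 4× images. Relative viability is treated-well nuclei count divided by vehicle-well nuclei count, and values are medians of duplicate plates.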"}, "HCC-15": {"system": "HCC-15", "procedure,_shortened": "as §1"}, "COR-L 105": {"system": "COR-L 105", "procedure,_shortened": "as §1"}, "LC-2-ad": {"system": "LC-2-ad", "procedure,_shortened": "as §1"}, "LU99A": {"system": "LU99A", "procedure,_shortened": "as §1"}, "NCI-H596": {"system": "NCI-H596", "procedure,_shortened": "as §1"}, "COR-L23": {"system": "COR-L23", "procedure,_shortened": "as §1"}, "HCC-366": {"system": "HCC-366", "procedure,_shortened": "as §1"}, "NCI-H3122": {"system": "NCI-H3122", "procedure,_shortened": "as §1"}, "HCC-78": {"system": "HCC-78", "procedure,_shortened": "as §1"}, "NCI-H1993": {"system": "NCI-H1993", "procedure,_shortened": "as §1"}, "EKVX": {"system": "EKVX", "procedure,_shortened": "as §1"}, "NCI-H1944": {"system": "NCI-H1944", "procedure,_shortened": "as §1"}, "HCC-827": {"system": "HCC-827", "procedure,_shortened": "as §1"}, "NCI-H1650": {"system": "NCI-H1650", "procedure,_shortened": "as §1"}, "HARA": {"system": "HARA", "procedure,_shortened": "as §1"}, "SK-LU-1": {"system": "SK-LU-1", "procedure,_shortened": "as §1"}, "BEN": {"system": "BEN", "procedure,_shortened": "as §1"}, "LXF-289": {"system": "LXF-289", "procedure,_shortened": "as §1"}, "NCI-H1975": {"system": "NCI-H1975", "procedure,_shortened": "as §1"}, "NCI-H1734": {"system": "NCI-H1734", "procedure,_shortened": "as §1"}, "NCI-H1755": {"system": "NCI-H1755", "procedure,_shortened": "as §1"}, "RERF-LC-KJ": {"system": "RERF-LC-KJ", "procedure,_shortened": "as §1"}},
  "data": [
    {"smiles": "Cc1cnc(-c2cnc(NCCNc3ccc(C#N)cn3)nc2-c2ccc(Cl)cc2Cl)[nH]1", "note": "+ COc1cccc2cc(-c3nc([C@H]4CC[C@H](C(=O)O)CC4)n4ncnc(N)c34)[nH]c12 [OSI-027] (partner 0.5 µM)", "values": [
      {"measurement": "relative viability", "setting": "201T; first compound 0.08 µM", "value": 0.562},
      {"measurement": "relative viability", "setting": "201T; first compound 0.8 µM", "value": 0.819},
      {"measurement": "relative viability", "setting": "201T; first compound 2.53 µM", "value": 0.768},
      {"measurement": "relative viability", "setting": "HCC-15; first compound 0.08 µM", "value": 0.707},
      {"measurement": "relative viability", "setting": "HCC-15; first compound 0.253 µM", "value": 0.665},
      {"measurement": "relative viability", "setting": "HCC-15; first compound 0.8 µM", "value": 0.512},
      {"measurement": "relative viability", "setting": "HCC-15; first compound 2.53 µM", "value": 0.786},
      {"measurement": "relative viability", "setting": "COR-L 105; first compound 0.08 µM", "value": 0.769},
      {"measurement": "relative viability", "setting": "COR-L 105; first compound 0.253 µM", "value": 0.661},
      {"measurement": "relative viability", "setting": "COR-L 105; first compound 0.8 µM", "value": 0.694},
      {"measurement": "relative viability", "setting": "COR-L 105; first compound 2.53 µM", "value": 0.379},
      {"measurement": "relative viability", "setting": "LC-2-ad; first compound 0.08 µM", "value": 0.886},
      {"measurement": "relative viability", "setting": "LC-2-ad; first compound 0.253 µM", "value": 0.713},
      {"measurement": "relative viability", "setting": "LC-2-ad; first compound 2.53 µM", "value": 0.962},
      {"measurement": "relative viability", "setting": "LU99A; first compound 0.08 µM", "value": 0.291},
      {"measurement": "relative viability", "setting": "LU99A; first compound 0.253 µM", "value": 0.304},
      {"measurement": "relative viability", "setting": "LU99A; first compound 0.8 µM", "value": 0.327},
      {"measurement": "relative viability", "setting": "LU99A; first compound 2.53 µM", "value": 0.401},
      {"measurement": "relative viability", "setting": "NCI-H596; first compound 0.08 µM", "value": 0.846},
      {"measurement": "relative viability", "setting": "NCI-H596; first compound 0.253 µM", "value": 0.73},
      {"measurement": "relative viability", "setting": "NCI-H596; first compound 0.8 µM", "value": 0.483},
      {"measurement": "relative viability", "setting": "NCI-H596; first compound 2.53 µM", "value": 0.668},
      {"measurement": "relative viability", "setting": "COR-L23; first compound 0.08 µM", "value": 0.805},
      {"measurement": "relative viability", "setting": "COR-L23; first compound 0.253 µM", "value": 0.762},
      {"measurement": "relative viability", "setting": "COR-L23; first compound 0.8 µM", "value": 0.885},
      {"measurement": "relative viability", "setting": "COR-L23; first compound 2.53 µM", "value": 0.906},
      {"measurement": "relative viability", "setting": "HCC-366; first compound 0.08 µM", "value": 1.01},
      {"measurement": "relative viability", "setting": "HCC-366; first compound 0.253 µM", "value": 0.489},
      {"measurement": "relative viability", "setting": "HCC-366; first compound 0.8 µM", "value": 0.558},
      {"measurement": "relative viability", "setting": "HCC-366; first compound 2.53 µM", "value": 0.695},
      {"measurement": "relative viability", "setting": "NCI-H3122; first compound 0.08 µM", "value": 1.4},
      {"measurement": "relative viability", "setting": "NCI-H3122; first compound 0.8 µM", "value": 1.05},
      {"measurement": "relative viability", "setting": "NCI-H3122; first compound 2.53 µM", "value": 0.967},
      {"measurement": "relative viability", "setting": "HCC-78; first compound 0.08 µM", "value": 0.41},
      {"measurement": "relative viability", "setting": "HCC-78; first compound 0.253 µM", "value": 0.391},
      {"measurement": "relative viability", "setting": "HCC-78; first compound 0.8 µM", "value": 0.366},
      {"measurement": "relative viability", "setting": "HCC-78; first compound 2.53 µM", "value": 0.438},
      {"measurement": "relative viability", "setting": "NCI-H1993; first compound 0.08 µM", "value": 0.568},
      {"measurement": "relative viability", "setting": "NCI-H1993; first compound 0.253 µM", "value": 0.49},
      {"measurement": "relative viability", "setting": "NCI-H1993; first compound 0.8 µM", "value": 0.536},
      {"measurement": "relative viability", "setting": "NCI-H1993; first compound 2.53 µM", "value": 0.577},
      {"measurement": "relative viability", "setting": "EKVX; first compound 0.08 µM", "value": 0.768},
      {"measurement": "relative viability", "setting": "EKVX; first compound 0.253 µM", "value": 0.706},
      {"measurement": "relative viability", "setting": "EKVX; first compound 0.8 µM", "value": 0.589},
      {"measurement": "relative viability", "setting": "EKVX; first compound 2.53 µM", "value": 0.624},
      {"measurement": "relative viability", "setting": "NCI-H1944; first compound 0.08 µM", "value": 0.422},
      {"measurement": "relative viability", "setting": "NCI-H1944; first compound 0.8 µM", "value": 0.489},
      {"measurement": "relative viability", "setting": "NCI-H1944; first compound 2.53 µM", "value": 0.685},
      {"measurement": "relative viability", "setting": "HCC-827; first compound 0.08 µM", "value": 0.903},
      {"measurement": "relative viability", "setting": "HCC-827; first compound 0.8 µM", "value": 0.814},
      {"measurement": "relative viability", "setting": "HCC-827; first compound 2.53 µM", "value": 0.759},
      {"measurement": "relative viability", "setting": "NCI-H1650; first compound 0.08 µM", "value": 0.75},
      {"measurement": "relative viability", "setting": "NCI-H1650; first compound 0.253 µM", "value": 0.61},
      {"measurement": "relative viability", "setting": "NCI-H1650; first compound 0.8 µM", "value": 0.554},
      {"measurement": "relative viability", "setting": "NCI-H1650; first compound 2.53 µM", "value": 0.56},
      {"measurement": "relative viability", "setting": "HARA; first compound 0.08 µM", "value": 0.554},
      {"measurement": "relative viability", "setting": "HARA; first compound 0.253 µM", "value": 0.376},
      {"measurement": "relative viability", "setting": "HARA; first compound 0.8 µM", "value": 0.469},
      {"measurement": "relative viability", "setting": "HARA; first compound 2.53 µM", "value": 0.562},
      {"measurement": "relative viability", "setting": "SK-LU-1; first compound 0.08 µM", "value": 0.344},
      {"measurement": "relative viability", "setting": "SK-LU-1; first compound 0.253 µM", "value": 0.336},
      {"measurement": "relative viability", "setting": "SK-LU-1; first compound 0.8 µM", "value": 0.35},
      {"measurement": "relative viability", "setting": "SK-LU-1; first compound 2.53 µM", "value": 0.463},
      {"measurement": "relative viability", "setting": "BEN; first compound 0.08 µM", "value": 0.352},
      {"measurement": "relative viability", "setting": "BEN; first compound 0.253 µM", "value": 0.307},
      {"measurement": "relative viability", "setting": "BEN; first compound 0.8 µM", "value": 0.324},
      {"measurement": "relative viability", "setting": "BEN; first compound 2.53 µM", "value": 0.371},
      {"measurement": "relative viability", "setting": "LXF-289; first compound 0.08 µM", "value": 0.926},
      {"measurement": "relative viability", "setting": "LXF-289; first compound 0.253 µM", "value": 0.777},
      {"measurement": "relative viability", "setting": "LXF-289; first compound 0.8 µM", "value": 0.882},
      {"measurement": "relative viability", "setting": "LXF-289; first compound 2.53 µM", "value": 0.829},
      {"measurement": "relative viability", "setting": "NCI-H1975; first compound 0.08 µM", "value": 0.839},
      {"measurement": "relative viability", "setting": "NCI-H1975; first compound 0.253 µM", "value": 0.647},
      {"measurement": "relative viability", "setting": "NCI-H1975; first compound 0.8 µM", "value": 0.6},
      {"measurement": "relative viability", "setting": "NCI-H1975; first compound 2.53 µM", "value": 0.399},
      {"measurement": "relative viability", "setting": "NCI-H1734; first compound 0.08 µM", "value": 0.66},
      {"measurement": "relative viability", "setting": "NCI-H1734; first compound 0.253 µM", "value": 0.547},
      {"measurement": "relative viability", "setting": "NCI-H1734; first compound 0.8 µM", "value": 0.597},
      {"measurement": "relative viability", "setting": "NCI-H1734; first compound 2.53 µM", "value": 0.616},
      {"measurement": "relative viability", "setting": "NCI-H1755; first compound 0.08 µM", "value": 0.81},
      {"measurement": "relative viability", "setting": "NCI-H1755; first compound 0.253 µM", "value": 0.737},
      {"measurement": "relative viability", "setting": "NCI-H1755; first compound 0.8 µM", "value": 0.726},
      {"measurement": "relative viability", "setting": "NCI-H1755; first compound 2.53 µM", "value": 0.756},
      {"measurement": "relative viability", "setting": "RERF-LC-KJ; first compound 0.08 µM", "value": 0.672},
      {"measurement": "relative viability", "setting": "RERF-LC-KJ; first compound 0.253 µM", "value": 0.591},
      {"measurement": "relative viability", "setting": "RERF-LC-KJ; first compound 0.8 µM", "value": 0.454},
      {"measurement": "relative viability", "setting": "RERF-LC-KJ; first compound 2.53 µM", "value": 0.697}
    ]}
  ]
}
